Assay results as given in patent publication US20060286032A1, “A radiosotope-chitosan complex for treatment of prostate cancer” (priority 2003, published 2006).
Marks after values point to notes of the source that are not given here.

What was measured:
[1] = Autoradiography, complex solution versus ^166Ho(NO3)3.5H2O solution not containing chitosan, injected into the prostate gland; format: in vivo, rats; conditions: for Radioactive concentration, Administration site / Radioactive concentration, End region of femur / Radioactive concentration, Liver / Radioactive concentration, Spine / Radioactive concentration, Spleen / Radioactive concentration, Kidney: 25 μl (about 100 μCi); for Radioactivity retained in the administration site, the prostate gland: 24 hrs after being administered
Description: To investigate advantages of the ^166Ho-chitosan complex, autoradiography was carried out for a group administered with the complex solution and a control group administered with a ^166Ho(NO3)3.5H2O solution not containing chitosan. In the complex solution administration group, 25 μl of the complex solution was administered, which was equal to about 100 μCi. The control group was administered with a ^166Ho(NO3)3.5H2O solution not containing chitosan with the same dosage and radioactive concentration as in the complex solution administration group. This test was carried out according to the same method as in Experimental Example 1, and each test drug was administered to the prostate gland. After 0.5, 2, 6 and 24 hrs, rats were sacrificed and evaluated by autoradiography. The measured radioactive concentrations (% ID/g) in various organs after injection of the complex solution and the ^166Ho(NO3)3.5H2O solution are given in Table 2, below.

[2] = system: AIT carcinoma (androgen-independent carcinoma cell line); assay: Antitumor effect in AIT subcutaneous tumor model; format: in vivo, noble rats; conditions: non-radioactive complex group; for Tumor growth inhibition rate: four weeks, tumor weight vs control
Description: To evaluate the effect of the complex on hormone-independent prostate cancer, an AIT carcinoma (androgen-independent carcinoma cell line) was transplanted into noble rats, and the antitumor effect of the complex was examined.
An androgen-independent, prostate carcinoma cell line, AIT, which is derived from noble rats, was cultured in 10% FBS-containing DMEM at 37° under 5% CO2. The cultured carcinoma cells were suspended in sterile physiological saline at a density of 4×10^6 cells/ml, and 2×10^6 cells were subcutaneously transplanted into the lateral abdomen of male 5-week noble rats. When the long axis of the tumor was about 1 cm long (in this test, 14 days after transplantation), the rats were grouped according to the tumor mass. The kit prepared in Example 2 was used as a test drug, and was administered at the same dose as in Experimental Example 5, that is, 0.2 ml. The rats were divided into four groups: a control group (no treatment); two administration groups administered with the complex solution at 10 mCi and 20 mCi per 1 cm^3 tumor; and another administration group administered with a non-radioactive complex solution (Holmium-165 (^165Ho)-chitosan complex solution). Four weeks after administration with the complex solution, tumors were excised from the rats, and tumor growth inhibition rates were measured by weighing the tumors.

[3] = system: DU-145 carcinoma cell line (hormone-independent prostate carcinoma cell line); assay: Antitumor effect in DU-145 subcutaneous tumor model, intratumoral injection; format: in vivo, nude mice; conditions: for Tumor volume after injection / Tumor growth inhibition rate: non-radioactive complex group; for Tumor volume after injection: 0.2 ml intratumoral; for Tumor growth inhibition rate: last day of the test (2 wks), tumor volume vs control
Description: To investigate the effect of the complex on hormone-independent prostate cancer, a DU-145 carcinoma cell line (hormone-independent prostate carcinoma cell line), which is rarely produces prostate-specific antigen, was transplanted into nude mice and the antitumor effect of the complex was evaluated.
The DU-145 cells were cultured in 10% FBS (fetal bovine serum)-containing F-12K(Kaign's Modification of Ham's F-12 medium) in a 5% CO2 incubator at 37° C., and 2×10^5 cells/0.2 ml/head were subcutaneously transplanted into the lumbar portion of male 6-week nude mice. When the long axis of the tumor was about 1 cm long, the complex solution was intratumorally injected. The administration volume of the test drug was 0.2 ml. The mice were divided into four groups: a control group (no treatment); two administration groups administered with the complex solution at doses of 10 mCi and 20 mCi per 1 cm^3 tumor; and another administration group administered with a non-radioactive complex solution [Holmium-165 (^165Ho)-chitosan complex solution]. Two weeks after administration with the complex solution, the mice were histopathologically examined to evaluate the antitumor effect and toxicity to major organs of the complex.

[4] = Histopathological examination of organs of rats of the orthotopic model (hematoxylin and eosin); format: in vivo, noble rats; conditions: last day of the test
Text: From all rats tested in Experimental Example 7, which were sacrificed on the last day of the test, the heart, lung, liver, kidney, spleen, testes, epididymis, seminal vesicle, bladder, rectum and tumor tissues were excised, embedded in paraffin according to general tissue processing, and sectioned into a thickness of 3 μm. The tissue sections were subjected to double staining with hematoxylin and eosin and histopathologically examined.

[5] = system: AIT prostate carcinoma cells; assay: Antitumor effect in orthotopic tumor model, AIT transplanted into the prostate gland; format: in vivo, noble rats; conditions: non-radioactive complex group
Description: In addition to the subcutaneous tumor model tested in Experimental Example 6, the antitumor effect and side effects of the complex solution was examined in an orthotopic tumor model where AIT prostate carcinoma cells had been directly transplanted into the prostate gland. AIT cells were cultured in 10% FBS-containing DMEM at 37° under 5% CO2. The cultured carcinoma cells were suspended in sterile physiological saline at a density of 2×10^6 cells/0.05 ml. After noble rats were anesthetized with fentanyl and the abdomen was opened, 2×10^6 cells per rat were transplanted into the prostate gland of the rats. Seven days after carcinoma transplantation, the rats were randomly allocated. The kit prepared in Example 2 was used as a test drug, and 0.05 ml of the kit was administered. The rats were divided into four groups: a control group (no treatment); two administration groups administered with 0.5 mCi and 1.0 mCi of the complex solution; and another administration group administered with a non-radioactive complex solution (Holmium-165 (^165Ho)-chitosan complex solution). Two and four weeks after administration of the complex solution, the rats were sacrificed, and tumors were excised from the rats and weighed.

[6] = listed as non-radioactive complex solution

O.O.O.O.O.O=[N+]([O-])[O-].O=[N+]([O-])[O-].O=[N+]([O-])[O-].[166Ho+3] [^166Ho, ^166Ho(NO3)3.5H2O]
Radioactive concentration, Administration site ([1]; 30 min): 4532 ± 513.4 % ID/g
Radioactive concentration, End region of femur ([1]; 30 min): 0.02^b % ID/g
Radioactive concentration, Liver ([1]; 30 min): 0.02 ± 0.011 % ID/g
Radioactive concentration, Spine ([1]; 30 min): 0.01^b % ID/g
Radioactive concentration, Administration site ([1]; 2 hrs): 4404 ± 1806.8 % ID/g
Radioactive concentration, End region of femur ([1]; 2 hrs): 0.11 ± 0.104 % ID/g
Radioactive concentration, Liver ([1]; 2 hrs): 0.04 ± 0.024 % ID/g
Radioactive concentration, Spine ([1]; 2 hrs): 0.03 ± 0.030 % ID/g
Radioactive concentration, Spleen ([1]; 2 hrs): 0.03 ± 0.009 % ID/g
Radioactive concentration, Administration site ([1]; 6 hrs): 2197 ± 1334.3 % ID/g
Radioactive concentration, End region of femur ([1]; 6 hrs): 0.32 ± 0.068 % ID/g
Radioactive concentration, Kidney ([1]; 6 hrs): 0.03 ± 0.008 % ID/g
Radioactive concentration, Liver ([1]; 6 hrs): 0.12 ± 0.022 % ID/g
Radioactive concentration, Spine ([1]; 6 hrs): 0.07 ± 0.010 % ID/g
Radioactive concentration, Spleen ([1]; 6 hrs): 0.07 ± 0.006 % ID/g
Radioactive concentration, Administration site ([1]; 24 hrs): 1067 ± 941.8 % ID/g
Radioactive concentration, End region of femur ([1]; 24 hrs): 1.74 ± 0.424 % ID/g
Radioactive concentration, Kidney ([1]; 24 hrs): 0.07 ± 0.025 % ID/g
Radioactive concentration, Liver ([1]; 24 hrs): 0.18 ± 0.150 % ID/g
Radioactive concentration, Spine ([1]; 24 hrs): 0.45 ± 0.123 % ID/g
Radioactive concentration, Spleen ([1]; 24 hrs): 0.11 ± 0.073 % ID/g
Radioactivity retained in the administration site, the prostate gland ([1]; listed as 166Ho(NO3)3.5H2O solution): about 30%
Radioactivity retained in the administration site, the prostate gland ([1]; listed as radioisotope solution not containing chitosan): 30%
Radioactive concentration in liver, spleen, kidney and end region of the femur, fold higher than in the complex solution group ([1]; after 6 and 24 hrs): 2 to 4 fold
Radioactive concentration in the administration site, fold lower than in the complex solution group ([1]; after 6 hrs): 2 fold
Radioactive concentration in the administration site, fold lower than in the complex solution group ([1]; after 24 hrs): 3 fold

Holmium-165 (^165Ho)-chitosan complex [Non-radioactive complex, reference compound]
Tumor weight ([2]; four weeks after administration): 18.1 ± 4.37 g
Tumor growth inhibition rate [2]: 20.4%
Tumor growth inhibition rate [2, 6]: about 20%
Change in tumor volume ([3]; last day of the test): greatly increased
Tumor volume after injection ([3]; 1 wk): 1.24 ± 0.61 cm^3
Tumor volume after injection ([3]; 2 wks): 5.03 ± 1.51 cm^3
Tumor growth inhibition rate [3]: 23.1%
Tumor growth inhibition rate [3, 6]: about 20%
Histopathological changes in organs other than the tumor tissue (heart, lung, liver, kidney, spleen, testes, epididymis, seminal vesicle, bladder, rectum) [4]: no abnormalities in adjacent organs were found
Tumor weight ([5]; 2 wks after administration): 1.93 ± 0.29 g
Tumor weight ([5]; 4 wks after administration): 32.62 ± 2.32 g
